Earlier results on one sequence are cited in patent US20210177743A1, “Self-Assembling Multi-Domain Peptide Based Hydrogels” (New Jersey Institute of Technology, priority 2018, published 2021).

The test system of this data set is hepatocytes with low LDL receptors due to PCSK9.

For the sequence TVFTSWEEYLDWV [Pep2-8], the “LDL receptors on the cell surface” value is reported as “restore the receptors to the cell surface”.
